Assays:
H1355 = experiment: MTT viability assay, H1355; type: cell-based, human; conditions: mean ± span, 48 h treatment, cell line with KRAS mutation
Description: (§1) NSCLC cell lines were obtained from the Hamon Center for Therapeutic Oncology Research (UT Southwestern Medical Center). IMR-90 human lung fibroblasts were from ATCC (CC-186). All cell lines were maintained and treated in RPMI medium (Cytiva (Shanghai, China), #SH30027), supplemented with 10% heat-inactivated FBS (Millipore Sigma (Darmstadt, Germany), F0394).
(§2) 5000–10,000 cells/0.1 mL/well were seeded in 96-well plates to achieve 70% confluence after 24 h. All drug stock solutions were prepared fresh in DMSO at a concentration of 10 mM. The day after cell plating, we added 0.1 mL of medium containing the appropriate drug dilutions. After 48 h of treatment, 10 μL of MTT solution (5 mg/mL) was added to each well. After 4 h incubation, the medium was aspirated, and the formazan salts dissolved in 200 μL DMSO/well for 10 min at 37 °C. The absorbance was read at 570 nm (OD 570 nm). Data are represented as mean ± SD of two independent experiments.
(§3) Statistical and data analysis was performed using GraphPad Prism (v10). IC50 values were calculated using a three-parameter non-linear regression model with log(inhibitor) vs. response. For the TxrR activity statistics, the groups were compared using a two-way ANOVA followed by Dunnett’s multiple comparisons with alpha = 0.05. The correlation between IC50 values and TxrR activity was achieved using Pearson correlation with alpha = 0.05.

H460 = experiment: MTT viability assay, H460; type: cell-based, human; conditions: mean ± span, 48 h treatment, cell line with KRAS mutation
Description: as §1, §2, §3

A549 = experiment: MTT viability assay, A549; type: cell-based, human; conditions: mean ± span, 48 h treatment, cell line with KRAS mutation
Description: as §1, §2, §3

[1] = tested on: human NSCLC cell lines without KRAS mutations; experiment: MTT assay, average across NSCLC cell lines without KRAS mutations; type: cell-based; conditions: average across cell lines without KRAS mutations (H522, H661, H1395, H1993), 48 h, read-out: IC50 * averaged values
Description: as §1, §2, §3

H1993 = experiment: MTT viability assay, H1993; type: cell-based, human; conditions: mean ± span, 48 h treatment, cell line without KRAS mutation
Description: as §1, §2, §3

H661 = experiment: MTT viability assay, H661; type: cell-based, human; conditions: mean ± span, 48 h treatment, cell line without KRAS mutation
Description: as §1, §2, §3

HCC-44 = experiment: MTT viability assay, HCC-44; type: cell-based, human; conditions: mean ± span, 48 h treatment, cell line with KRAS mutation
Description: as §1, §2, §3

[2] = tested on: human NSCLC cell lines with KRAS mutations; experiment: MTT assay, average across NSCLC cell lines with KRAS mutations; type: cell-based; conditions: 48 h, read-out: IC50 * averaged values
Description: as §1, §2, §3

[3] = tested on: TrxR in A549 cell lysates; experiment: Thioredoxin reductase activity in lysates of treated A549 cells; type: cell-based, human; conditions: for Mean Diff. TrxR activity vs. veh: A549 lysate, 24 h treatment at 5 μM
Description: (§4) The enzymatic activity of TrxR in the A549 and H522 cell lysates was measured using the TrxR assay Kit (Abcam ab83463) following the manufacturer’s instructions. This kit is based on the TxrR-mediated reduction of the colorless DTNB into TNB2—(yellow). Briefly, cells were plated to reach 70% confluence on a 100-mm dish in one day. They were treated with 5 μM of the gold compounds or the equivalent quantity of DMSO for 24 h. Then, cells were washed in PBS 1X, detached, and lysed in 100 μL of cold TrxR assay buffer supplemented with the Proteinase Inhibitor Cocktail. 20 μg and 40 μg of total proteins were used for the A549 and the H522, respectively. The DTNB substrate was added to samples with or without TrxR inhibitor (provided with the kit) in 96-well plates. The OD412 was measured soon after the substrate addition (A1) and then after 25, 60, 90, and 110 min (An) at 25 °C using a FLUOstar Omega Microplate Reader (BGM Labtech, Chicago, IL, USA). Data analysis was performed following the manufacturer’s instructions. The OD of TNB2, generated by TrxR in every condition, is:ΔA412 nm = (AnAB − AnINH) − (AB − A1INH) where AB is the assay buffer, and INH is the inhibitor. The TrxR activity is:(2) ΔB/Tn−T1×mg of protein lysate×sample dilution factor=(nmol/min)/mg=mU/mg where ΔB is the TNB amount calculated applying ΔA412 nm to TNB standard curve (in nmol), T1 is the time of the first reading (A1AB, and A1INH) (in min), Tn is the time of the second reading (AnAB and AnINH) (in min). The residual TxrR activity (%) was calculated by normalizing the TxrR activity for each compound with the matching vehicle values at every n time point.
as §3

H1792 = experiment: MTT viability assay, H1792; type: cell-based, human; conditions: mean ± span, 48 h treatment, cell line with KRAS mutation
Description: as §1, §2, §3

H522 = experiment: MTT viability assay, H522; type: cell-based, human; conditions: mean ± span, 48 h treatment, cell line without KRAS mutation
Description: as §1, §2, §3

H1395 = experiment: MTT viability assay, H1395; type: cell-based, human; conditions: mean ± span, 48 h treatment, cell line without KRAS mutation
Description: as §1, §2, §3

[4] = tested on: TrxR in H522 cell lysates; experiment: Thioredoxin reductase activity in lysates of treated H522 cells; type: cell-based, human; conditions: for Mean Diff. TrxR activity vs. veh: H522 lysate, 24 h treatment at 5 μM
Description: as §4, §3

[5] = Solution stability by UV-visible spectra over time; type: physicochemical; conditions: 100 µM solution, within an hour
Description: Stability studies were led by acquiring UV−visible spectra of 100 µM DMSO or methanol solutions of compounds 1∓8 over time (Figures S19–S29 in Supplementary Materials). […] The stability of NHC-AuX3 complexes (with X = Cl, compounds 1 and 2, with X = Br, compounds 5 and 6) was affected by the nature of both the substituents on the imidazolyl ligand and of the halide, showing a small decrease of the UV bands maxima in an hour. By analyzing the spectral data of compounds 1 and 2, a percent concentration reduction of about 4–5% was estimated within an hour, grading them eligible for biological tests. The partial instability may be attributed to the formation of cationic bis-carbeneAuCl2 species (Equation (1)), with the [bis-carbeneAuX2]^+ and the respective AuX2^−; these ions were actually detected as positive and negative ions in the ESI-MS spectra (see Figures S12 and S13). […] Additionally, the (+)ESI MS spectrum of the acetonitrile solution of compound 6 is particularly rich in positive ions (Figure S16). As concerns the mono-/bis-carbene formation, it is likely initiated by the large trans effect of the carbene ligands, which induces the chemical lability on the trans halide, triggers […], the formation of bis-carbeneAu(III) species, and AuX2^− or AuX4^− anions:2[NHC-AuX3] ⇔ [[(NHC)2AuX2] [AuX2^−] + 2X(1) […]
The stability of the samples 1-8 in DMSO solution was assayed by UV-visible spectroscopy. Spectra were acquired using the Shimadzu UV-2700i spectrophotometer, equipped with the Shimadzu CPS-100 Peltier, at 293 K. Unless diversely specified, 100 µM DMSO solutions of the 1-8 compounds were prepared and spectra were acquired each 10 minutes for a total of 60 minutes. The spectra obtained are reported as following.
Figure S19. UV-Visible Spectra acquired for complex 1.
Figure S20. UV-Visible Spectra acquired for complex 2. […]

“[bis-(1,3-dimethyl-imidazoly-2yl)]gold(I) dibromoaurate [Compound 3]” gave an IC50 (H1355) of 9.1 ± 1.03 µM, an IC50 (H460) of 68 ± 0.1 µM and an IC50 (A549) of 91 ± 1.03 µM. For the same molecule, the IC50 [1] was 16 µM, the IC50 (H1993) was 11 ± 0.96 µM and the IC50 (H661) was 27 ± 1.2 µM. The IC50 (HCC-44) was 10 ± 1.1 µM, the IC50 [2] was 46 µM and the “Mean Diff. TrxR activity vs. veh” value ([3]; reading at 25 min) was −21.88%. The “Mean Diff. TrxR activity vs. veh” value ([3]; reading at 60 min) was −4.221%, the “Mean Diff. TrxR activity vs. veh” value ([3]; reading at 90 min) was −8.42% and the “Mean Diff. TrxR activity vs. veh” value ([3]; reading at 110 min) was −9.068%. For the same molecule, the IC50 (H1792) was 50 ± 1.2 µM, the IC50 (H522) was 15 ± 1.1 µM and the IC50 (H1395) was 11 ± 0.63 µM. For the same molecule, the “Mean Diff. TrxR activity vs. veh” value ([4]; reading at 25 min) was −44.05%, the “Mean Diff. TrxR activity vs. veh” value ([4]; reading at 60 min) was −47.07% and the “Mean Diff. TrxR activity vs. veh” value ([4]; reading at 90 min) was −47.31%. The “Mean Diff. TrxR activity vs. veh” value ([4]; reading at 110 min) was −50.17%.

For `C[n+]1ccn(Cc2ccccc2)[c]1[Au-][Br]` [Compound 4], the IC50 (H1355) was 8.1 ± 0.66 µM, the IC50 (H460) was 11 ± 1.2 µM and the IC50 (A549) was 19 ± 1 µM. It also gave an IC50 [1] of 9 µM, an IC50 (H1993) of 12 ± 1.03 µM and an IC50 (H661) of 7 ± 0.81 µM. For the same molecule, the IC50 (HCC-44) was 14 ± 1.1 µM, the IC50 [2] was 14 µM and the “Mean Diff. TrxR activity vs. veh” value ([3]; reading at 25 min) was −3.861%. The “Mean Diff. TrxR activity vs. veh” value ([3]; reading at 60 min) was −2.183%, the “Mean Diff. TrxR activity vs. veh” value ([3]; reading at 90 min) was −18.13% and the “Mean Diff. TrxR activity vs. veh” value ([3]; reading at 110 min) was −21.37%. The IC50 (H1792) was 16 ± 0.94 µM, the IC50 (H522) was 5.3 ± 0.88 µM and the IC50 (H1395) was 11 ± 0.88 µM. For the same molecule, the “Mean Diff. TrxR activity vs. veh” value ([4]; reading at 25 min) was 23.18%, the “Mean Diff. TrxR activity vs. veh” value ([4]; reading at 60 min) was 7.116% and the “Mean Diff. TrxR activity vs. veh” value ([4]; reading at 90 min) was −0.3654%. For the same molecule, the “Mean Diff. TrxR activity vs. veh” value ([4]; reading at 110 min) was −18.72%.

In the case of `C[n+]1ccn(Cc2ccccc2)[c]1[Au-]([Cl])([Cl])[Cl]` [Compound 2], the IC50 (H1355) is reported as 34 ± 1.4 µM, the IC50 (H460) is reported as 65 ± 2.2 µM and the IC50 (A549) is reported as 56 ± 1.6 µM. It also gave an IC50 [1] of 30 µM, an IC50 (H1993) of 6.1 ± 0.76 µM and an IC50 (H661) of 45 ± 1.7 µM. The “percent concentration reduction estimated from UV spectra” value [5] was 4–5%, the IC50 (HCC-44) was 26 ± 1.3 µM and the IC50 [2] was 41 µM. For the same molecule, the “TrxR activity reduction / inhibition” value ([3]; A549, 24 h treatment, stated for both cell lines) was 20–30%, the “Mean Diff. TrxR activity vs. veh” value ([3]; reading at 25 min) was −5.148% and the “Mean Diff. TrxR activity vs. veh” value ([3]; reading at 60 min) was −11.64%. The “Mean Diff. TrxR activity vs. veh” value ([3]; reading at 90 min) was −22.67%, the “Mean Diff. TrxR activity vs. veh” value ([3]; reading at 110 min) was −30.44% and the IC50 (H1792) was 24 ± 0.98 µM. The IC50 (H522) was 53 ± 2.1 µM, the IC50 (H1395) was 17 ± 0.8 µM and the “TrxR activity reduction / inhibition” value ([4]; H522, 24 h treatment, stated for both cell lines) was 20–30%. The “Mean Diff. TrxR activity vs. veh” value ([4]; reading at 25 min) was 3.864%, the “Mean Diff. TrxR activity vs. veh” value ([4]; reading at 60 min) was −19.16% and the “Mean Diff. TrxR activity vs. veh” value ([4]; reading at 90 min) was −23.38%. The “Mean Diff. TrxR activity vs. veh” value ([4]; reading at 110 min) was −31.46%.
